Results from ChEMBL document CHEMBL1156044, “Novel pyridine derivatives as potent and selective CB2 cannabinoid receptor agonists” (Bioorg Med Chem Lett, 2009).

Experiments:
[1] = biological target: T1, Cannabinoid receptor 2 (Homo sapiens, UniProt P34972); experiment: Displacement of [3H][…] from human cloned CB2 receptor after 60 mins by scintillation spectroscopy
[2] = biological target: T2, Cannabinoid receptor 1 (Homo sapiens, UniProt P21554); experiment: Displacement of [3H][…] from human cloned CB1 receptor after 120 mins by scintillation spectroscopy
[3] = Metabolic stability in human liver microsomes assessed as compound remaining at […] after 30 mins; format: ADME, Microsome; conditions: read-out: Stability
[4] = biological target: T3, Cannabinoid receptor 2 (Rattus norvegicus, UniProt Q9QZN9); experiment: Agonist activity at CB2 receptor in rat cerebellar membrane assessed as WIN-55212-2-stimulated [35S]GTPgammaS binding after 6 hrs by scintillation spectrometry; format: functional, cell membranes, Cerebellum
T3 sequence (Q9QZN9 whole entry): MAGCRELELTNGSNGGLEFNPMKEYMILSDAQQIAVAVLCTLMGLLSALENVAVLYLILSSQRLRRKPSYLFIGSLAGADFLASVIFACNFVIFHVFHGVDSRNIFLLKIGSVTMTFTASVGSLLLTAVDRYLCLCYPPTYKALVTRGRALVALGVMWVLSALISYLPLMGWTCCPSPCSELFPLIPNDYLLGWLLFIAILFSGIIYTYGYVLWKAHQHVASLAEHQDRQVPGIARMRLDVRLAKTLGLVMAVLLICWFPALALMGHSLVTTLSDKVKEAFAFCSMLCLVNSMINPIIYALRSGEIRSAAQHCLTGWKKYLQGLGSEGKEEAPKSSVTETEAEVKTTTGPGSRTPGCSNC

[5] = species on record: Homo sapiens; experiment: Selectivity ratio of Ki for human cloned CB1 receptor to Ki for human cloned CB2 receptor
[6] = Metabolic stability in rat liver microsomes assessed as compound remaining at […] after 30 mins; format: ADME, Microsome; conditions: read-out: Stability
[7] = biological target: T2, Cannabinoid receptor 1; experiment: Inhibition of [3H][…] binding to human cloned CB1 receptor at 10 uM after 120 mins by scintillation spectroscopy
[8] = biological target: T1, Cannabinoid receptor 2; experiment: Inhibition of [3H][…] binding to human cloned CB2 receptor at 10 uM after 60 mins by scintillation spectroscopy
[9] = Volume of distribution at steady state in Sprague-Dawley rat at 1 mg/kg, iv administered as single dose; format: ADME, organism-based; design: dose 1 mg/kg, route intravenous; conditions: in vivo, read-out: Vdss
[10] = tested on: Canis familiaris; experiment: AUC (0 to infinity) in Beagle dog at 10 mg/kg, po administered as single dose; format: ADME, organism-based, Canis lupus familiaris, Plasma; design: time infinity, dose 10 mg/kg, route oral; conditions: in vivo
[11] = tested on: Rattus norvegicus; experiment: Antiallodynic activity against neuropathic pain in L5 spinal nerve ligated rat model assessed as reduction of allodynia at 100 mg/kg, po administered 9 days after surgery relative to control; format: functional; design: scale not given: the % may be the effect or the level left
[12] = Half life in Sprague-Dawley rat at 1 mg/kg, iv administered as single dose; format: ADME, organism-based; design: dose 1 mg/kg, route intravenous; conditions: in vivo
[13] = Cmax in Sprague-Dawley rat at 10 mg/kg, po administered as single dose; format: ADME, organism-based; design: dose 10 mg/kg, route oral; conditions: in vivo
[14] = Half life in Beagle dog at 1 mg/kg, iv administered as single dose; format: ADME, organism-based, Canis lupus familiaris; design: dose 1 mg/kg, route intravenous; conditions: in vivo
[15] = AUC (0 to infinity) in Sprague-Dawley rat at 10 mg/kg, po administered as single dose; format: ADME, organism-based; design: time infinity, dose 10 mg/kg, route oral; conditions: plasma
[16] = Oral bioavailability in Sprague-Dawley rat at 10 mg/kg administered as single dose; format: ADME, organism-based; conditions: in vivo
[17] = Volume of distribution at steady state in Beagle dog at 1 mg/kg, iv administered as single dose; format: ADME, organism-based, Canis lupus familiaris; design: dose 1 mg/kg, route intravenous; conditions: in vivo, read-out: Vdss
[18] = Tmax in Beagle dog at 10 mg/kg, po administered as single dose; format: ADME, organism-based, Canis lupus familiaris; design: dose 10 mg/kg, route oral; conditions: in vivo
[19] = tested on: Canis familiaris; experiment: Oral bioavailability in Beagle dog at 10 mg/kg, po administered as single dose; format: ADME, organism-based, Canis lupus familiaris; conditions: in vivo
[20] = AUC (0 to infinity) in Sprague-Dawley rat at 1 mg/kg, iv administered as single dose; format: ADME, organism-based; design: time infinity, dose 1 mg/kg, route intravenous; conditions: plasma
[21] = Cmax in Beagle dog at 10 mg/kg, po administered as single dose; format: ADME, organism-based, Canis lupus familiaris; design: dose 10 mg/kg, route oral; conditions: in vivo
[22] = Tmax in Sprague-Dawley rat at 10 mg/kg, po administered as single dose; format: ADME, organism-based; design: dose 10 mg/kg, route oral; conditions: in vivo
[23] = Systemic plasma clearance in Beagle dog at 1 mg/kg, iv administered as single dose; format: ADME, organism-based, Canis lupus familiaris; design: dose 1 mg/kg, route intravenous
[24] = Half life in Sprague-Dawley rat at 10 mg/kg, po administered as single dose; format: ADME, organism-based; design: dose 10 mg/kg, route oral; conditions: in vivo
[25] = Systemic plasma clearance in Sprague-Dawley rat at 1 mg/kg, iv administered as single dose; format: ADME, organism-based; design: dose 1 mg/kg, route intravenous
[26] = tested on: Canis familiaris; experiment: Area under curve (0 to infinity) in Beagle dog at 1 mg/kg, iv administered as single dose; format: ADME, organism-based, Canis lupus familiaris; design: time infinity, dose 1 mg/kg, route intravenous; conditions: in vivo
[27] = Half life in Beagle dog at 10 mg/kg, po administered as single dose; format: ADME, organism-based, Canis lupus familiaris; design: dose 10 mg/kg, route oral; conditions: in vivo

T2 sequence (P21554 whole entry): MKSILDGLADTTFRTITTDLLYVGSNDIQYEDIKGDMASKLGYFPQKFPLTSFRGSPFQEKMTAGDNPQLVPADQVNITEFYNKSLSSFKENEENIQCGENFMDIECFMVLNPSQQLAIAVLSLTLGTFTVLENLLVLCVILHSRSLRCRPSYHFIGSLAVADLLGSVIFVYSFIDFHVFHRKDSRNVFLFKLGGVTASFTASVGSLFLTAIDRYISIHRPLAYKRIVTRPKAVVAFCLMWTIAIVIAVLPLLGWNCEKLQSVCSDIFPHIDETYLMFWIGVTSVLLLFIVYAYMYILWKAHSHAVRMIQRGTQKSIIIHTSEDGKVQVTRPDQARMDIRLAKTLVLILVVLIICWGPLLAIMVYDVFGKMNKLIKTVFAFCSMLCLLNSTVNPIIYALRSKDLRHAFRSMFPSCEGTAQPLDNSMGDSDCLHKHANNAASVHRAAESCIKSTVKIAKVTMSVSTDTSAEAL
T1 sequence (P34972 whole entry): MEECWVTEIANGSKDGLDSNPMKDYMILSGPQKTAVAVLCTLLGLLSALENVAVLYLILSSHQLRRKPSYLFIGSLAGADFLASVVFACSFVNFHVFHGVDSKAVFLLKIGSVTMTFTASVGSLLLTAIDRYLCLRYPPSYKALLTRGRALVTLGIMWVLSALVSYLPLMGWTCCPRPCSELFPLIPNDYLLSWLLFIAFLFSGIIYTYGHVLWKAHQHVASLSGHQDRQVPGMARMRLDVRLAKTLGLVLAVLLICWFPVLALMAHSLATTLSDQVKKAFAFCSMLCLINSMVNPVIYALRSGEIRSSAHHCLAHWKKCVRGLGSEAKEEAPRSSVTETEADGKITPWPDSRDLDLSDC

| Structure (SMILES) | Ki [1] [nM] | Ki [2] [nM] | remaining at 0.5 h [3] [%] | EC50 [4] [nM] | Ratio Ki [5] | remaining at 0.5 h [6] [%] | inhibition [7] [%] | further results |
| --- | --- | --- | --- | --- | --- | --- | --- | --- |
| CCC1(C(=O)Nc2cc(CN3CCOCC3)c(C)cn2)CCCC1 | 13 | 1100 | 12 | 13 | 85 | – | – | – |
| CCc1cnc(NC(=O)C(C)(C)CC)cc1CN1CCOCC1 | 7.9 | 4300 | 34 | 9.6 | 550 | 29 | – | – |
| CCC(C)(C)C(=O)Nc1cc(CN2CCOCC2)c(N)cn1 | 870 | – | – | – | – | – | 10 | – |
| CCC(C)(C)C(=O)Nc1cnc(C)c(CN2CCOCC2)c1 | – | – | – | – | – | – | 4 | inhibition [8]: 46% |
| Cc1cnc(NC(=O)C(C)(C)C)cc1CN1CCOCC1 | 81 | – | – | 70 | – | – | 37 | – |
| CCC1(C(=O)Nc2cc(CN3CCOCC3)c(C)cn2)CCC1 | 45 | – | 51 | 140 | – | 48 | 13 | – |
| CCC(C)(C)C(=O)Nc1cc(CN2CCOCC2)c(C)cc1C | – | – | – | – | – | 68 | 18 | – |
| CCCC(C)(C)C(=O)Nc1cc(CN2CCOCC2)c(C)cn1 | 5.3 | 1800 | 15 | 4.1 | 330 | – | – | – |
| CCC(C)(C)C(=O)Nc1ccc(C)c(CN2CCOCC2)c1 | – | – | – | – | – | 2.2 | 4 | – |
| CCC(C)(C)C(=O)Nc1cc(CN2CCOCC2)c(C#N)cn1 | 100 | – | – | 200 | – | – | 11 | – |
| CCC1(C(=O)Nc2cc(CN3CCOCC3)c(C)cn2)CC1 | 63 | – | – | 62 | – | – | 25 | – |
| Cc1cnc(NC(=O)C2(C)CCCCC2C)cc1CN1CCOCC1 (centres undefined) | 1.9 | 2500 | 1 | 2.8 | 1300 | 0 | – | – |
| CCC(C)(C)C(=O)Nc1cc(CN2CCOCC2)cc(C)n1 | 67 | – | – | 260 | – | – | 0 | – |
| CCC1(C(=O)Nc2cc(CN3CCOCC3)c(C)cn2)CCCCC1 | 7 | – | 0 | 8.8 | – | 0 | 36 | – |
| CCC(C)(C)C(=O)Nc1ccc(C)c(CN2CCOCC2)n1 | 1800 | – | – | – | – | – | 28 | – |
| CCC(C)(C)C(=O)Nc1cc(CN2CCOCC2)c(C)cn1 | 24 | 3800 | 64 | 41 | 160 | 43 | – | Vd [9]: 3.5 L/kg; AUC [10]: 977 ng·h/mL; Activity [11]: 271%; half-life [12]: 0.5 h; Cmax [13]: 185 ng/mL; half-life [14]: 1.4 h; AUC(0-inf) [15]: 893 ng·h/mL; bioavailability [16]: 57%; Vd [17]: 0.6 L/kg; Tmax [18]: 0.5 h; F [19]: 29%; AUC(0-inf) [20]: 158 ng·h/mL; Cmax [21]: 535 ng/mL; Tmax [22]: 2 h; clearance [23]: 15 mL/min/kg; half-life [24]: 2.1 h; clearance [25]: 96.7 mL/min/kg; AUC [26]: 1127 ng·h/mL; half-life [27]: 1.1 h |
